Measured values as given in paper PMC9763021, “Comprehensive Assessment of Biomolecular Interactions of Morpholine-Based Mixed Ligand Cu(II) and Zn(II) Complexes of 2,2′-Bipyridine as Potential Anticancer and SARS-CoV-2 Agents: A Synergistic Experimental and Structure-Based Virtual Screening” (Bioinorganic Chemistry and Applications, 2022).

Legend:
[1] = test system: A549 human lung cancer cell line; assay: MTT cell viability assay, A549; assay type: cell-based
Procedure: (§1) All substances towards the A549, HepG2, MCF-7, and NHDF cell lines were evaluated by using the MTT approach. The collected data were utilized to compute the IC50 value and contrast it with the gold standard cisplatin anticancer medication.
(§2) Cellular viability or metabolic properties can be measured using the MTT assay, which is a powerful and credible method for anticancer properties. The anticancer efficacy of all test compounds was investigated by the MTT assay against A549, HepG2, MCF-7, and NHDF cell lines. As per the colorimetric approach, the IC50 findings of all test substances were evaluated as the % of cell viability/growth inhibition. […] Nevertheless, complex (1a) has the highest cytotoxic potential among others. The acquired findings were in the subsequent sequence as follows: (cisplatin) > (1a) > (2a) > (HL) (Figure 16 and Table 10). The cytotoxic effectiveness is dependent upon the DNA-binding modalities, the structure-activity relationship, as well as drug concentrations and incubation period exposure. […] As per Tweedy's chelation theory, charge equilibration happens as a result of coordination between the ligands and metal ions, which minimises the polarity of the metal ions and causes the capability of the test complexes to pass via the cell membrane lipid layer. Thus, it put off the synthesis of cell wall/protein/nucleic acids. Additionally, the results of DNA-binding tests using these complexes, including gel electrophoresis, UV-visible spectral titration, hydrodynamic, emission, and CV findings, were in good agreement with the findings of cytotoxicity. The expressions (46) and (47) were supported to measure the % of growth inhibition and cell viability. […]
(§3) A549, HepG2 MCF-7, and NHDF are represented as human lung cancer cell line, liver cancer cell line, breast cancer cell line, and normal human dermal fibroblasts cell line.(45) % Cytotoxiciy=1− Mean absorbance of Sample at 595 nm/Mean absorbance of Controlat 595 nm ×100, (46) Cellviability%=100−Cytotoxiciy%.

[2] = test system: HepG2 liver cancer cell line; assay: MTT cell viability assay, HepG2; assay type: cell-based, human
Procedure: as §1, §2, §3

[3] = test system: MCF-7 breast cancer cell line; assay: MTT cell viability assay, MCF-7; assay type: cell-based, human
Procedure: as §1, §2, §3

[4] = test system: NHDF normal human dermal fibroblasts cell line; assay: MTT cell viability assay, NHDF; assay type: cell-based; conditions: 72 hours exposure, normal cells
Procedure: as §1, §2, §3

| Compound | IC50 ([1]; Homo sapiens, A549, 72 hours exposure) [µM] | IC50 ([2]; Homo sapiens, HepG2, 72 hours exposure) [µM] | IC50 ([3]; Homo sapiens, MCF7, 72 hours exposure) [µM] | IC50 ([4]; Homo sapiens, NHDF) [µM] | IC50 ([1]; 72 hours exposure) [µM] | IC50 ([2]; 72 hours exposure) [µM] | IC50 ([3]; 72 hours exposure) [µM] | IC50 [4] [µM] |
| --- | --- | --- | --- | --- | --- | --- | --- | --- |
| Oc1ccccc1N=Cc1ccc(N2CCOCC2)cc1 [(HL), 2-(4-morpholinobenzylideneamino)phenol] | 126 ± 6.3 | 108 ± 5.4 | 105 ± 5.3 | 209 ± 10.4 | – | – | – | – |
| [Cu+2].[O-]c1ccccc1N=Cc1ccc(N2CCOCC2)cc1.[O-]c1ccccc1N=Cc1ccc(N2CCOCC2)cc1.c1ccc(-c2ccccn2)nc1 [(1a), [Cu(L)2(bpy)]] | – | – | – | – | 30.8 ± 1.5 | 33.1 ± 1.7 | 32.1 ± 1.6 | 73.6 ± 3.7 |
